Earlier results, collected in patent publication US20170202789A1, “METHODS AND RELATED COMPOSITIONS FOR IMPROVED DRUG BIOAVAILABILITY AND DISEASE TREATMENT” (priority 2014, published 2017).

Experiments:
[1] = system: Na/K ATPase
[2] = caffeine 160 mg drink prior to cycling time trial, p<0.01
[3] = co-administration with carbohydrate drink, depending on dose and frequency
[4] = 3 mg/kg one hour prior to running, p<0.05
[5] = 400 mg, untrained individuals
[6] = 6 mg/kg + maintenance doses, with 7% carbohydrate drink
[7] = doses of 6-9 mg/kg

[O]=[V]([O-])([O-])[O-] [vanadate]
concentration at which formation of EP is inhibited [1]: less than 1 micromolar

Cn1c(=O)c2c(ncn2C)n(C)c1=O [caffeine]
reduction of time to complete the trial [2]: ~5%
increase in performance [3]: 2-3%
improvement in performance compared to placebo [4]: 1.2%
effect on bench press, leg extension strength or cycle ergometry [5]: did not have any positive effects
difference in performance with versus without caffeine [6]: No differences were noted
cognitive function before exercise (energy drink with caffeine, low dose): improved long term memory
cognitive function after exercise (low and medium dose caffeine containing energy drinks): improved all cognitive tests
adverse effects [7]: jitters, increased heart rate, and a diminution in exercise performance
